Source: article PMC7604503, “Cyclic peptides can engage a single binding pocket through highly divergent modes” (Proceedings of the National Academy of Sciences of the …, 2020)
Where a SMILES comes first, the peptide text is derived from it. Bridges are numbered along the chain shown (N, C = ends).

What was measured:
BRPF3 = molecular target: T1, BRPF3 (Homo sapiens, UniProt Q9ULD4); assay: BROMOscan competition binding assay (BromoMAX, Eurofins DiscoverX); details: for Percent Control BRPF3: compound concentration 1000 nM, lower percentage control = stronger affinity
T1 construct: purchased Eurofins DiscoverX (BROMOscan, BromoMAX)
T1 sequence (Q9ULD4 1-1205): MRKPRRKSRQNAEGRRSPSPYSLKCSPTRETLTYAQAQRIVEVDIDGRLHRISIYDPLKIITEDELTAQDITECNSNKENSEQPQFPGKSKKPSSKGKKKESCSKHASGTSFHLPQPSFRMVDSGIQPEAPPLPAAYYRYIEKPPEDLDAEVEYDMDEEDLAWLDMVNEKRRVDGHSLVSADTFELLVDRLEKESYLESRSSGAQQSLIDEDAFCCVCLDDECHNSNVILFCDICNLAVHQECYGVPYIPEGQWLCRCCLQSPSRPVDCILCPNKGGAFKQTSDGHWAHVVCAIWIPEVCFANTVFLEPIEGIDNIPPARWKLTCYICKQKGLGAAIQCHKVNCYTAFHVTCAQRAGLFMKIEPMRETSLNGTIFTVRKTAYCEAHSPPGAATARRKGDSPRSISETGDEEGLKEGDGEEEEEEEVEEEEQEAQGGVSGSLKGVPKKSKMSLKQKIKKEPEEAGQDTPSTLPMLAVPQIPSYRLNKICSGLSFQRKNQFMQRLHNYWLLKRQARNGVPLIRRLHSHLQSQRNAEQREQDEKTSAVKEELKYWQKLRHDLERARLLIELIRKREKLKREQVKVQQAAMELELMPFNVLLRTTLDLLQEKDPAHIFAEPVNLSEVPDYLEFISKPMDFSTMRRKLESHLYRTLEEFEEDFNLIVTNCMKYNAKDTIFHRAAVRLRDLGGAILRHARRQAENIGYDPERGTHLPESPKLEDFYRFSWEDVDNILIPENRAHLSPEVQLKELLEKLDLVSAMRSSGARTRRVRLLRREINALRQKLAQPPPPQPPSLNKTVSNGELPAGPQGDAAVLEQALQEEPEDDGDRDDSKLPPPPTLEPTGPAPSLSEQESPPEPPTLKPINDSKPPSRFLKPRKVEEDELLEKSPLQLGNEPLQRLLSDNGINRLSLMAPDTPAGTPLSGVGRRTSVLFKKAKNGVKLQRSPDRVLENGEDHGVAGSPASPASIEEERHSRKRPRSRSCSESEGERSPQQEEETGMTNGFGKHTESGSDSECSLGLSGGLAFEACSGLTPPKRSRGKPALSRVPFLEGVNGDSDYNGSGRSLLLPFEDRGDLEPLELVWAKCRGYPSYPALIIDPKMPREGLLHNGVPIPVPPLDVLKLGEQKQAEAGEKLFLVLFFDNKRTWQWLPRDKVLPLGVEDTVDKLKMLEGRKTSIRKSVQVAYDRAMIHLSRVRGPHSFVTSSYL

ATAD2B = molecular target: T2, ATAD2B (Homo sapiens, UniProt Q9ULI0); assay: as above; details: for Percent Control ATAD2B: compound concentration 1000 nM, lower percentage control = stronger affinity
T2 construct: purchased Eurofins DiscoverX (BROMOscan, BromoMAX)
T2 sequence (Q9ULI0 1-1458): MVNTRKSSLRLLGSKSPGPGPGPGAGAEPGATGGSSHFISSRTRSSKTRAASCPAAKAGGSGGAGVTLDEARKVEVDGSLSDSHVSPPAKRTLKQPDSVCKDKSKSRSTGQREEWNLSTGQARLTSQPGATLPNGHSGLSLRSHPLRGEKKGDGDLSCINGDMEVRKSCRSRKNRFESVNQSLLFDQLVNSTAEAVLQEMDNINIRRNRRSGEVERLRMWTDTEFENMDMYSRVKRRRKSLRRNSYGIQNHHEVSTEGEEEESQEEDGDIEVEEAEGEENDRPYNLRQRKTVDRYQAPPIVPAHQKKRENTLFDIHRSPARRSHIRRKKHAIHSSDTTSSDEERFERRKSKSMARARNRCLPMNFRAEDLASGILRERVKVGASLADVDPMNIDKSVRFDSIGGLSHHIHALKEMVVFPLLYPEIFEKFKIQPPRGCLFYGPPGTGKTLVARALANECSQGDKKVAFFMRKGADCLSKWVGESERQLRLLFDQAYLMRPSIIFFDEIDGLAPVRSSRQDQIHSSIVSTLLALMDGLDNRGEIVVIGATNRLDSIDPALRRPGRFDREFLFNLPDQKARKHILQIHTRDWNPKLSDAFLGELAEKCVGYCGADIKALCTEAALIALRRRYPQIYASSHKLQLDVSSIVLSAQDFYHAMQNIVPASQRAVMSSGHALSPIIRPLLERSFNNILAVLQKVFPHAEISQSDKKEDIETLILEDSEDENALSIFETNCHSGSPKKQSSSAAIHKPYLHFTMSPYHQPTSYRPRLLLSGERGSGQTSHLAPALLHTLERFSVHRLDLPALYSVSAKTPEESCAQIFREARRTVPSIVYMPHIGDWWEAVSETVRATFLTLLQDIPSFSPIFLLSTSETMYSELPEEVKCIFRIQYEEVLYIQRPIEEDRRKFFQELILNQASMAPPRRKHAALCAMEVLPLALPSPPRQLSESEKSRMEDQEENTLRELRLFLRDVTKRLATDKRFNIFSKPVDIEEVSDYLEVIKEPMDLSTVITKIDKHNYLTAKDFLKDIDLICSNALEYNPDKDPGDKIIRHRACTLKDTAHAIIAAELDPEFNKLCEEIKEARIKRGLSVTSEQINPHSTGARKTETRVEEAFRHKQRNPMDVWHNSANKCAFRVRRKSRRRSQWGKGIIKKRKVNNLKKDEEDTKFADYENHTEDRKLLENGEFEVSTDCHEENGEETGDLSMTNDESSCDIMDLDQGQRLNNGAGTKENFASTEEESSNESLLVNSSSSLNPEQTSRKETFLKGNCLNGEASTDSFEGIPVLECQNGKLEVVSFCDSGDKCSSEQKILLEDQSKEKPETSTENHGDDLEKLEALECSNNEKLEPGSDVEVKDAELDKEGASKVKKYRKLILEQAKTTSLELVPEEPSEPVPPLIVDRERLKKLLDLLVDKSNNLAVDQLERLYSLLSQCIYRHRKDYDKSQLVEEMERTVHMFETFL

Row | SMILES | Percent Control BRPF3 (BRPF3) | Percent Control ATAD2B (ATAD2B) | remaining binding at 1 µM (BRPF3; read-out: Percent Control BRPF3) | percent of control binding at 1 µM (ATAD2B)
1 | CC[C@H](C)[C@@H]1NC(=O)[C@H]([C@@H](C)O)NC(=O)[C@H](CCCCN)NC(=O)[C@H](Cc2c[nH]c3ccccc23)NC(=O)CSC[C@@H](C(N)=O)NC(=O)[C@H](CCC(N)=O)NC(=O)[C@H](CCCCNC(C)=O)NC(=O)[C@H]([C@@H](C)O)NC(=O)[C@H](CCCNC(=N)N)NC(=O)[C@H](Cc2c[nH]c3ccccc23)NC(=O)[C@H]([C@@H](C)O)NC(=O)[C@H](CCCCNC(C)=O)NC(=O)CNC(=O)[C@H](CCCCNC(C)=O)NC1=O [3.1B] ({CH2CO}-WKTIK(Ac)GK(Ac)TWRTK(Ac)QC-NH2; thioether N-14) | 100% | 100% |  | 
2 | CC[C@H](C)[C@H](NC(=O)[C@H](CCCNC(=N)N)NC(=O)[C@H](CCCCNC(C)=O)NC(=O)[C@H](CCCNC(=N)N)NC(=O)[C@H](CC(C)C)NC(=O)[C@@H]1CSCC(=O)N[C@@H](Cc2c[nH]c3ccccc23)C(=O)N[C@@H](CCCCNC(C)=O)C(=O)NCC(=O)N[C@@H](Cc2ccc(O)cc2)C(=O)N[C@@H](CC(C)C)C(=O)N1)C(=O)N[C@@H](CCC(N)=O)C(=O)N[C@@H](CCCNC(=N)N)C(=O)N[C@H](C(=O)N[C@@H](Cc1ccc(O)cc1)C(=O)N[C@@H](CC(N)=O)C(N)=O)[C@@H](C)O [4.2C] ({CH2CO}-WK(Ac)GYLCLRK(Ac)RIQRTYN-NH2; thioether N-6) |  |  | 92% | 100%
3 | CC[C@H](C)[C@@H]1NC(=O)[C@H](Cc2c[nH]c3ccccc23)NC(=O)[C@H](Cc2c[nH]c3ccccc23)NC(=O)CSC[C@@H](C(N)=O)NC(=O)CNC(=O)[C@H](CCCCNC(C)=O)NC(=O)[C@H](CCCCN)NC(=O)[C@H](C(C)C)NC(=O)[C@H](CCCCNC(C)=O)NC(=O)[C@@H]2CCCN2C(=O)[C@H]([C@@H](C)CC)NC1=O [3.1C] ({CH2CO}-WWIIPK(Ac)VKK(Ac)GC-NH2; thioether N-11) | 95% | 100% |  | 
